# Several values for one entry are separate records, joined by “and”; a condition that tells them apart may be missing. Equal entries are not always repeated.
# Tests used:
# [1] = target: T1, PXR/MED1 (Homo sapiens, UniProt O75469); assay: Mammalian two-hybrid PXR/coactivator MED1 recruitment, HepG2; type: cell-based; parameters: key: firefly/Metridia luciferase activity ratio (normalized)
# T1 construct: PXR-LBD (residues 108–434); expressed in transfected cells; host or cells: HepG2
# Description: The GAL4-dependent pGL4-G5, harboring a pentamer of GAL4 binding sites in front of the E1b promoter was described before.
# Transient batch transfection of HepG2 cells was done as described above. […] All transfections included 0.01 µg pMetLuc2control per well for normalization of firefly luciferase reporter activities. After overnight incubation with the transfection mixtures, cells were treated with chemicals in a volume of 100 µl of cell culture medium. […] Firefly luciferase activity was measured in 10 µl of cell lysates, and Metridia luciferase activity was analyzed in 10 µl of medium supernatant, both as described before. Results were normalized by dividing firefly luciferase activity by Metridia luciferase activity measured from the same well. Measurements of samples were repeated several times (n ≥ 3).
# [2] = tested on: humanized PXR-CAR-CYP3A4/3A7 mice, plasma; assay: Plasma metabolomics (HFD study); type: in vivo, mouse
# Description: Metabolomic plasma analysis was performed using plasma samples from male PXR/CAR/CYP3A4 mice (n=5) treated with MI-883 in the proof-of-concept study involving a high-fat diet^23. Plasma samples were prepared on ice, and each sample was separated into two 20 μl aliquots. All prepared aliquots were then frozen and stored at −80°C until analysis. Plasma aliquots were thawed, and protein precipitation was performed by adding 60 μl of a mixture containing 40% methanol, 40% acetonitrile, and 20% water. Samples were mixed, incubated for 12 hours at -20°C, and then centrifuged at 20,000 g for 10 minutes. The supernatants were collected for analysis by LC-MS/MS. A pooled quality control sample was prepared by mixing 10 μl from each sample. LC separation was performed on an iHILIC® Classic column (iHILIC®-(P) Classic, HILIC Column, PEEK,100x2.1mm, 5µm, 200Å, Hilicon, Umeå, Sweden) using a water/acetonitrile gradient with 10 mM ammonium formate, starting from 95% to 42% over 15 minutes in both polarities. LC-MS/MS analysis was conducted on the ID-X Orbitrap Tribrid Mass Spectrometer (ThermoFisher Scientific).
# [3] = tested on: HepaRG KO CAR cells; assay: RT-qPCR mRNA expression in HepaRG KO CAR cells; type: cell-based, human
# Description: HepaRG cells from Biopredic (Rennes, France) were cultivated and differentiated on the 12-well plates. […] Several batches of HepaRG KO CAR (CAR Knockout HepaRG™ Cells, MTOX1012-1VL, RRID:CVCL_B6AA) and PXR Knockout HepaRG™ Cells, MTOX1011-1VL, RRID:CVCL_B6AS) cells have been obtained from Sigma-Aldrich/Merck (Darmstadt, Germany) and cultivated according to the provider’s protocols. […] Experiments with HepaRG KO PXR and HepaRG KO CAR cells have been performed in duplicates at least in two independent experiments.
# RT-qPCR was used to examine gene expression in 2D and 3D PHH, HepaRG cells, or in mouse liver or intestine (ileum) samples as we have described before[60]–[62].
# All qRT-qPCR experiments including Trizol reagent (Life Technologies) total RNA isolation, reverse-transcription using a random hexaprimer, and the MMLV Reverse Transcriptase Kit (ThermoFisher Scientific) we have described before^19. qPCR was performed using TaqMan Fast Advanced Master Mix with TaqMan probes (ThermoFisher Scientific). […] The delta-delta method was used for gene expression quantification normalized to at least two reference genes. Three technical replicates were used for each reaction considering the MIQE guidelines. Data are presented as fold induction to vehicle-treated cells/animals.
# [4] = target: T2, Human recombinant CYP2B6 (Homo sapiens, UniProt P20813); assay: CYP450-Glo CYP2B6 enzymatic activity assay; type: biochemical; details: for Inhibition assays, CYP2B6 activity (replicates): log[Agonist]
# T2 construct: purchased Promega; host or cells: baculovirus-infected insect cells
# T2 sequence (P20813 1-491): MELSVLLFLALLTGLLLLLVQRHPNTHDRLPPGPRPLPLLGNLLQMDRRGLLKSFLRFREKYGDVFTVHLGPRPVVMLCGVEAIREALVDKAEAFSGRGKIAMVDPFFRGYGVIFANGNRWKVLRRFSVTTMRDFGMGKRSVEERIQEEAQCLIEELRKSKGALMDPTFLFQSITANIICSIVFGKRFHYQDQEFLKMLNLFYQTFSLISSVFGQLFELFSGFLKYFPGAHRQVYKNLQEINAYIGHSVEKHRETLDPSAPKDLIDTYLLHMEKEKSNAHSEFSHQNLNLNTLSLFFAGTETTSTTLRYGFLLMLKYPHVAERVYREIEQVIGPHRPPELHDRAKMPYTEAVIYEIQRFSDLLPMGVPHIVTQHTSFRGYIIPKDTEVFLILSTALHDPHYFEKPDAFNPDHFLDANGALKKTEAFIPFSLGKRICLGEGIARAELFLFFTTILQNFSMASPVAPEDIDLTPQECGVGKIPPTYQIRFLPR
# Description: Data are presented as means±S.D. from three independent measurements.
# [5] = tested on: humanized PXR-CAR-CYP3A4/3A7 mice, liver; assay: RT-qPCR and Western blotting of liver samples (HFD study); type: in vivo, mouse
# Description: RT-qPCR expression studies were performed on liver samples from eleven humanized PXR-CAR-CYP3A4/3A7 mice that were fed a high-fat diet and treated with 5 mg/kg MI-883 three times per week for four weeks. Specific TaqMan probes were used, following the protocol described in Supplementary Table S3.
# Western blotting experiments have been performed in BioRad instruments with BioRad precasted gels and reagents. Antibodies are listed in Supplementary Table S4. Densitometry has been done using ChemiDoc™ MP Imaging System and software (BioRad, Hercules, USA). Data are presented as relative protein expression to control samples. For protein expression quantification, areas in histograms have been calculated and related to a reference protein.
# [6] = FigS18c, plasma, individual animals
# [7] = FigS13, individual animals, relative to control
# [8] = HFD study, Western blotting, form not given
# [9] = hPXR/hCAR/hCYP3A4/7 mice, relative to control, individual animals
# T1 sequence (O75469 108-434): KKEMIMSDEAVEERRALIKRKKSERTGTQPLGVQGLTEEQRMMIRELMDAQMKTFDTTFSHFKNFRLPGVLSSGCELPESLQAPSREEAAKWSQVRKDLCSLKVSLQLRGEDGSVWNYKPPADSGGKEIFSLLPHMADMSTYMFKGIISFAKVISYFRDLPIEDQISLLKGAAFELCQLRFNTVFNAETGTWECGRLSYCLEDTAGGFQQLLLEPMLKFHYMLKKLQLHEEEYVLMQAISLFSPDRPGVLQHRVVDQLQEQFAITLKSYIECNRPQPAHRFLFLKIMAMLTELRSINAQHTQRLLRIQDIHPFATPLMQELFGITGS
smiles,measurement,setting,value
"NC(=O)c1cc(Cn2cc(-c3c(-c4ccc(Cl)cc4)nc4cc(F)ccn34)nn2)ccc1Cl [MI-883, 2-chloro-5-((4-(2-(4-chlorophenyl)-7-fluoroimidazo[1,2-a]pyridin-3-yl)-1H-1,2,3-triazol-1-yl)methyl)benzamide]","PXR/DRIP2025 (MED1) two-hybrid activity, replicates",[1]; MI-883 30 μM,0.42 and 0.46 and 0.18 and 0.3 and 0.2
same,"PXR/DRIP2025 (MED1) two-hybrid activity, replicates","[1]; single agent: RIF (10 µM), MI-883 10 μM",0.33 and 0.2 and 0.19 and 0.27 and 0.23
same,Isoleucine (plasma metabolomic data),[2]; [6],93.5 and 119.8 and 74.2 and 56.6 and 106.4 and 73.7
same,Leucine (plasma metabolomic data),[2]; [6],53.5 and 73.3 and 34.8 and 24.3 and 49.7 and 38.6
same,Valine (plasma metabolomic data),[2]; [6],2968.9 and 1967.5 and 1520.8 and 1183.5 and 1942.7 and 1962.8
same,"plasma 2-hydroxy-3-oxopropanoate, change","[2]; HFD study, male mice",1.595 fold
same,"plasma 5-aminopentanoic acid (5-aminovalerate), change","[2]; HFD study, male mice",1.375 fold
same,"plasma isoleucine, change","[2]; HFD study, male mice",1.638 fold
same,plasma small-molecule metabolome,"[2]; HFD study, male mice",no significant effect
same,CYP7A1 mRNA in HepaRG KO CAR cells,[3],induced
same,"CYP2B6 mRNA, RT-qPCR, HepaRG KO CAR (Fig. 1f), replicates","[3]; Phenobarbital 500 μM, CITCO 1 μM, MI 883 1 μM, ctrl = 1",0.55 and 0.6 and 0.76
same,inhibition of CYP2B6 activity,[4],does not suppress
same,"Inhibition assays, CYP2B6 activity (replicates)",[4]; M 0,129 and 112 and 119
same,"Inhibition assays, CYP2B6 activity (replicates)",[4]; M 0.5,112
same,"Inhibition assays, CYP2B6 activity (replicates)","[4]; M 0.5, listed as MI 883",104 and 118
same,"Inhibition assays, CYP2B6 activity (replicates)",[4]; M 1,114 (2×) and 110
same,"Inhibition assays, CYP2B6 activity (replicates)",[4]; M -0.5,102 and 120 and 140
same,"Inhibition assays, CYP2B6 activity (replicates)",[4]; M -1,98
same,"Inhibition assays, CYP2B6 activity (replicates)","[4]; M -1, listed as MI 883",104 and 111
same,"Inhibition assays, CYP2B6 activity (replicates)",[4]; M -2,100
same,"Inhibition assays, CYP2B6 activity (replicates)",[4]; M -2.5,100
same,"Inhibition assays, CYP2B6 activity (replicates)",[4]; M -3,100
same,"Inhibition assays, CYP2B6 activity (replicates)",[4]; M -3.5,100
same,"Inhibition assays, CYP2B6 activity (replicates)",[4]; M -4,100
same,"Inhibition assays, CYP2B6 activity (replicates)",[4]; M -4.5,100
same,Acaca mRNA (RT-qPCR),[5]; [7],0.62 and 1.24 and 0.73 and 1.27 and 0.85 and 0.6 and 0.7 and 0.51 and 0.8 and 0.28 and 0.34
same,Cd36 mRNA (RT-qPCR),[5]; [7],0.88 and 1.19 and 0.76 and 1.31 and 0.8 and 0.72 and 1.01 and 0.19 and 1.11
same,Cpt1a mRNA (RT-qPCR),[5]; [7],1.05 and 0.92 and 2.34 and 0.85 and 1.37 and 0.77 and 1.27 and 0.96 and 1.08 and 0.81 and 0.88
same,FaSN mRNA (RT-qPCR),[5]; [7],0.51 and 0.56 and 0.8 and 0.98 and 0.62 and 0.37 and 0.54 and 0.38 and 0.73 and 0.14 and 0.71
same,Plin2 mRNA (RT-qPCR),[5]; [7],0.41 and 0.63 and 0.49 and 0.9 and 0.62 and 0.85 and 0.58 and 0.57 and 1 and 0.16 and 0.74
same,Pnpla3 mRNA (RT-qPCR),[5]; [7],1.72 and 1.4 and 0.48 and 1.37 and 0.96 and 0.84 and 0.35 and 0.25 and 1.49 and 0.03 and 1.94
same,Ppara mRNA (RT-qPCR),[5]; [7],0.97 and 0.71 and 1.1 and 0.18 and 1.04
same,Scd1 mRNA (RT-qPCR),[5]; [7],0.36 and 0.67 and 0.33 and 0.76 and 0.51 and 0.6 and 0.47 and 0.34 and 0.52 and 0.56
same,"liver Scd1 mRNA, RT-qPCR (n = 11)","[5]; HFD study, P = 0.0036",significantly downregulated
same,"liver Fasn and Plin2 mRNA, RT-qPCR","[5]; HFD study, P = 0.007 and P = 0.018",significantly downregulated
same,liver Cyp7a1 and Cyp8b1 proteins,"[5]; HFD study, Western blotting",significant upregulation
same,"liver Insig1 prot, individual samples","[5]; HFD study, Western blotting",3.8 and 3.3 and 3.1 and 2.9
same,liver Srebp1 120 kDa protein or mature nuclear fragments (mSrebp1),"[5]; HFD study, Western blotting",did not see any significant decrease
same,"liver Mrp4 prot, individual samples","[5]; HFD study, Western blotting, relative to control",1.89 and 1.6214 and 2.1487 and 1.571
same,"liver Srebp1/2 protein, lower block, first control/MI-883 pair",[5]; [8],1.8 and 1.6 and 1.7 and 1.1
same,"liver Srebp1/2 protein, lower block, second control/MI-883 pair",[5]; [8],0.6 and 0.7 and 0.5
same,"liver Srebp1/2 protein, upper block, second control/MI-883 pair",[5]; [8],1.7 and 1.5 and 1.1 and 1.2
same,liver mature nuclear mSrepb2 protein,"[5]; HFD study, effect is not significant",may decrease
same,"liver Cyp7a1 mRNA, RT-qPCR, individual animals","[5]; HFD study, relative to control",0.7586 and 0.4023 and 0.5977 and 0.2759 and 0.5402 and 0.954 and 0.4943 and 0.9885 and 0.5172
same,"liver Insig1 mRNA, RT-qPCR, individual animals","[5]; HFD study, relative to control",1.68 and 2.22 and 0.72 and 0.43 and 1.13 and 1.06 and 1.18 and 2.34 and 1.52 and 1.27 and 0.68
same,"liver Mrp4 mRNA, RT-qPCR, individual animals","[5]; HFD study, relative to control",4.091 and 6.648 and 4.182 and 4.443 and 4.045 and 2.545 and 4.341 and 10.0455 and 5.239 and 3.409
same,"liver Srebf1 mRNA, RT-qPCR, individual animals","[5]; HFD study, relative to control",0.7619 and 0.9619 and 0.5619 and 0.6 and 1.105 and 0.7714 and 0.7143 and 0.8857 and 0.819 and 0.4571
same,"liver Sult2a1 mRNA, RT-qPCR, individual animals","[5]; HFD study, relative to control",4.077 and 3.288 and 1.404 and 2.538 and 0.8846 and 1.615
same,"liver Ugt1a1 mRNA, RT-qPCR, individual animals","[5]; HFD study, relative to control",1.852 and 2.477 and 1.455 and 1.284 and 1 and 1.58 and 1.148 and 2.057 and 2 and 2.17 and 0.8977
same,"liver Ugt2b34 mRNA, RT-qPCR, individual animals","[5]; HFD study, relative to control",1.412 and 2.106 and 2.063 and 1.118 and 1.379 and 0.7926
same,liver murine Gadd45b mRNA and Meg3 lncRNA,[5]; PXR-CAR-CYP3A4/3A7 mice (Fig. 7a),statistically significant upregulation
same,Bcl2 expression (Fig. 7a),[5]; [9],0.87 and 0.95 and 0.93 and 1.25 and 1.35 and 0.29
same,Cdkn1a expression (Fig. 7a),[5]; [9],1.39 and 0.41 and 0.43 and 0.27 and 1.57 and 0.35
same,Foxm1 expression (Fig. 7a),[5]; [9],2.03 and 1.26 and 1.41 and 1.28 and 1.37 and 0.42
same,Gadd45b expression (Fig. 7a),[5]; [9],2.07 and 7.83 and 4.06 and 7.82 and 5.69 and 2.44
same,Mcl1 expression (Fig. 7a),[5]; [9],0.58 and 1.09 and 0.6 and 1.16 and 0.84 and 0.26
same,Meg3 expression (Fig. 7a),[5]; [9],2.24 and 7.88 and 3.05 and 3.57 and 2.39
same,Mki67 expression (Fig. 7a),[5]; [9],1.7 and 1.18 and 1.43 and 1.11 and 1.31 and 0.71
same,Pcna expression (Fig. 7a),[5]; [9],0.78 and 1.24 and 0.66 and 0.89 and 0.57 and 0.36

# From paper PMC11802874, “The hypolipidemic effect of MI-883, the combined CAR agonist/ PXR antagonist, in diet-induced hypercholesterolemia model” (Nature Communications, 2025)
